Results: ChEMBL document CHEMBL1201862, “PubChem BioAssay data set” (2004)
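Exposure lasted 48 hours, with cells grown in 96-well plates and compounds tested at five concentrations. GI50 = concentration required for 50% inhibition of growth.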 Active and inactive are the calls of the source. Rule as the data show it: active = GI50 up to about 1.1 µM and inactive = higher.

Assays:
Assay in all cases: DTP human tumour cell line panel, 48 h
EKVX = tested on: EKVX
COLO 205 = tested on: COLO 205
U-251 = tested on: U-251
HCT-116 = tested on: HCT-116
NCI-H226 = tested on: NCI-H226
SR = tested on: SR
KM12 = tested on: KM12
LOX IMVI = tested on: LOX IMVI
SN12C = tested on: SN12C
SF-295 = tested on: SF-295
SNB-19 = tested on: SNB-19
PC-3 = tested on: PC-3
K562 = tested on: K562
CAKI-1 = tested on: CAKI-1
CCRF-CEM = tested on: CCRF-CEM
MDA-MB-435 = tested on: MDA-MB-435
SW-620 = tested on: SW-620
SNB-75 = tested on: SNB-75
HCT-15 = tested on: HCT-15
SK-MEL-5 = tested on: SK-MEL-5
HOP-92 = tested on: HOP-92
BT-549 = tested on: BT-549
RPMI-8226 = tested on: RPMI-8226
SK-OV-3 = tested on: SK-OV-3
A549 = tested on: A549
Malme-3M = tested on: Malme-3M
OVCAR-4 = tested on: OVCAR-4
SF-539 = tested on: SF-539
MDA-MB-231 = tested on: MDA-MB-231
RXF 393 = tested on: RXF 393
786-0 = tested on: 786-0
UO-31 = tested on: UO-31
MDA-N = tested on: MDA-N
Hs-578T = tested on: Hs-578T
OVCAR-3 = tested on: OVCAR-3
NCI-H522 = tested on: NCI-H522
MCF7 = tested on: MCF7
SK-MEL-28 = tested on: SK-MEL-28
HOP-62 = tested on: HOP-62
SK-MEL-2 = tested on: SK-MEL-2
HT-29 = tested on: HT-29
MOLT-4 = tested on: MOLT-4
NCI-H460 = tested on: NCI-H460
HCC 2998 = tested on: HCC 2998
ACHN = tested on: ACHN
UACC-257 = tested on: UACC-257
NCI-H23 = tested on: NCI-H23
UACC-62 = tested on: UACC-62
A498 = tested on: A498
IGROV-1 = tested on: IGROV-1
M14 = tested on: M14
SF-268 = tested on: SF-268
OVCAR-8 = tested on: OVCAR-8
DU-145 = tested on: DU-145
OVCAR-5 = tested on: OVCAR-5
TK-10 = tested on: TK-10
T47D = tested on: T47D
NCI/ADR-RES = tested on: NCI/ADR-RES
HL-60 = tested on: HL-60

CCOc1ccc(N/C(Cl)=C(Cl)\C(=C(\Nc2ccc(OCC)cc2)n2nnc3ccccc32)[N+](=O)[O-])cc1 was tested, and the GI50 (EKVX) was 12.2 µM (inactive), the GI50 (COLO 205) was 7.38 µM (inactive) and the GI50 (U-251) was 6.78 µM (inactive). The GI50 (HCT-116) was 2.15 µM (inactive), the GI50 (NCI-H226) was 19.4 µM (inactive) and the GI50 (SR) was 1.45 µM (inactive). The GI50 (KM12) was 19.1 µM (inactive), the GI50 (LOX IMVI) was 1.65 µM (inactive) and the GI50 (SN12C) was 7.94 µM (inactive). For the same molecule, the GI50 (SF-295) was 22.1 µM (inactive), the GI50 (SNB-19) was 17.4 µM (inactive) and the GI50 (PC-3) was 7.4 µM (inactive). For the same molecule, the GI50 (K562) was 2.36 µM (inactive), the GI50 (CAKI-1) was 1.14 µM (inactive) and the GI50 (CCRF-CEM) was 1.3 µM (inactive). For the same molecule, the GI50 (MDA-MB-435) was 6.95 µM (inactive), the GI50 (SW-620) was 2.32 µM (inactive) and the GI50 (SNB-75) was 18.3 µM (inactive). The GI50 (HCT-15) was 1.91 µM, the GI50 (SK-MEL-5) was 8.49 µM (inactive) and the GI50 (HOP-92) was 2.25 µM (inactive). The GI50 (BT-549) was 3.85 µM (inactive), the GI50 (RPMI-8226) was 4.18 µM (inactive) and the GI50 (SK-OV-3) was 66.5 µM (inactive). For the same molecule, the GI50 (A549) was 23.3 µM (inactive), the GI50 (Malme-3M) was 2.32 µM (inactive) and the GI50 (OVCAR-4) was 10.3 µM (inactive). For the same molecule, the GI50 (SF-539) was 4.2 µM (inactive), the GI50 (MDA-MB-231) was 6.08 µM (inactive) and the GI50 (RXF 393) was 2.28 µM (inactive). The GI50 (786-0) was 4.02 µM (inactive), the GI50 (UO-31) was 4.45 µM (inactive) and the GI50 (MDA-N) was 3.82 µM (inactive). For the same molecule, the GI50 (Hs-578T) was 2.58 µM (inactive), the GI50 (OVCAR-3) was 4.12 µM (inactive) and the GI50 (NCI-H522) was 1.08 µM (active). For the same molecule, the GI50 (MCF7) was 5.89 µM (inactive), the GI50 (SK-MEL-28) was 7.83 µM (inactive) and the GI50 (HOP-62) was 33.1 µM (inactive). For the same molecule, the GI50 (SK-MEL-2) was 16.7 µM (inactive), the GI50 (HT-29) was 1.75 µM (inactive) and the GI50 (MOLT-4) was 2.85 µM (inactive). The GI50 (NCI-H460) was 24.7 µM (inactive), the GI50 (HCC 2998) was 13.2 µM (inactive) and the GI50 (ACHN) was 4.03 µM (inactive). The GI50 (UACC-257) was 8.3 µM (inactive), the GI50 (NCI-H23) was 6.38 µM (inactive) and the GI50 (UACC-62) was 15.7 µM (inactive). For the same molecule, the GI50 (A498) was 20.4 µM (inactive), the GI50 (IGROV-1) was 1.79 µM (inactive) and the GI50 (M14) was 4.75 µM (inactive). The GI50 (SF-268) was 6.98 µM (inactive), the GI50 (OVCAR-8) was 1.74 µM (inactive) and the GI50 (DU-145) was 14.5 µM (inactive). The GI50 (OVCAR-5) was 9.44 µM (inactive), the GI50 (TK-10) was 4.49 µM (inactive) and the GI50 (T47D) was 4.47 µM (inactive). The GI50 (NCI/ADR-RES) was 15.2 µM (inactive).
In the case of O=C(O)C1CCCCC1C(=O)Nc1nc2ccccc2[nH]1 (stereo unspecified), the GI50 (EKVX) is reported as 63 µM (inactive), the GI50 (COLO 205) is reported as > 100 µM (inactive) and the GI50 (U-251) is reported as > 100 µM (inactive). For the same molecule, the GI50 (HCT-116) was > 100 µM (inactive), the GI50 (NCI-H226) was > 100 µM (inactive) and the GI50 (SR) was > 100 µM (inactive). The GI50 (KM12) was > 100 µM (inactive), the GI50 (LOX IMVI) was > 100 µM (inactive) and the GI50 (SN12C) was > 100 µM (inactive). For the same molecule, the GI50 (SF-295) was > 100 µM (inactive), the GI50 (SNB-19) was > 100 µM (inactive) and the GI50 (PC-3) was > 100 µM (inactive). For the same molecule, the GI50 (CAKI-1) was > 100 µM (inactive), the GI50 (CCRF-CEM) was > 100 µM (inactive) and the GI50 (MDA-MB-435) was > 100 µM (inactive). For the same molecule, the GI50 (SW-620) was > 100 µM (inactive), the GI50 (SNB-75) was > 100 µM (inactive) and the GI50 (HCT-15) was over 100 µM. The GI50 (SK-MEL-5) was > 100 µM (inactive), the GI50 (HOP-92) was > 100 µM (inactive) and the GI50 (BT-549) was > 100 µM (inactive). For the same molecule, the GI50 (RPMI-8226) was > 100 µM (inactive), the GI50 (SK-OV-3) was > 100 µM (inactive) and the GI50 (A549) was > 100 µM (inactive). The GI50 (Malme-3M) was > 100 µM (inactive), the GI50 (OVCAR-4) was > 100 µM (inactive) and the GI50 (SF-539) was > 100 µM (inactive). For the same molecule, the GI50 (MDA-MB-231) was > 100 µM (inactive), the GI50 (RXF 393) was > 100 µM (inactive) and the GI50 (786-0) was > 100 µM (inactive). The GI50 (UO-31) was > 100 µM (inactive), the GI50 (MDA-N) was > 100 µM (inactive) and the GI50 (Hs-578T) was > 100 µM (inactive). The GI50 (OVCAR-3) was > 100 µM (inactive), the GI50 (NCI-H522) was > 100 µM (inactive) and the GI50 (MCF7) was > 100 µM (inactive). For the same molecule, the GI50 (SK-MEL-28) was > 100 µM (inactive), the GI50 (HOP-62) was > 100 µM (inactive) and the GI50 (SK-MEL-2) was > 100 µM (inactive). For the same molecule, the GI50 (HT-29) was > 100 µM (inactive), the GI50 (MOLT-4) was 39.5 µM (inactive) and the GI50 (NCI-H460) was > 100 µM (inactive). The GI50 (ACHN) was > 100 µM (inactive), the GI50 (UACC-257) was > 100 µM (inactive) and the GI50 (NCI-H23) was > 100 µM (inactive). The GI50 (UACC-62) was > 100 µM (inactive), the GI50 (A498) was > 100 µM (inactive) and the GI50 (IGROV-1) was > 100 µM (inactive). For the same molecule, the GI50 (M14) was > 100 µM (inactive), the GI50 (SF-268) was > 100 µM (inactive) and the GI50 (OVCAR-8) was > 100 µM (inactive). The GI50 (DU-145) was > 100 µM (inactive), the GI50 (OVCAR-5) was > 100 µM (inactive) and the GI50 (TK-10) was > 100 µM (inactive). For the same molecule, the GI50 (T47D) was > 100 µM (inactive) and the GI50 (NCI/ADR-RES) was > 100 µM (inactive).
With O=C1O/C(=C\c2ccc(O)c(Br)c2)C(c2ccc(O)c(Cl)c2)=C1Br the GI50 (EKVX) was 21.2 µM (inactive), the GI50 (COLO 205) was 18.1 µM (inactive) and the GI50 (U-251) was 13.5 µM (inactive). The GI50 (HCT-116) was 13.7 µM (inactive), the GI50 (SR) was 5.86 µM (inactive) and the GI50 (KM12) was 15 µM (inactive). The GI50 (LOX IMVI) was 44.6 µM (inactive), the GI50 (SN12C) was 25.8 µM (inactive) and the GI50 (SF-295) was 16.1 µM (inactive). The GI50 (SNB-19) was 18.3 µM (inactive), the GI50 (PC-3) was 11.7 µM (inactive) and the GI50 (K562) was 17.3 µM (inactive). The GI50 (CAKI-1) was 27 µM (inactive), the GI50 (CCRF-CEM) was 12.3 µM (inactive) and the GI50 (MDA-MB-435) was 16 µM (inactive). The GI50 (SW-620) was 17.3 µM (inactive), the GI50 (HCT-15) was 12.7 µM and the GI50 (SK-MEL-5) was 14.8 µM (inactive). For the same molecule, the GI50 (HOP-92) was 15.4 µM (inactive), the GI50 (BT-549) was 17.9 µM (inactive) and the GI50 (RPMI-8226) was 13.2 µM (inactive). For the same molecule, the GI50 (SK-OV-3) was 18 µM (inactive), the GI50 (A549) was 18.4 µM (inactive) and the GI50 (Malme-3M) was 17.9 µM (inactive). For the same molecule, the GI50 (OVCAR-4) was 11.5 µM (inactive), the GI50 (SF-539) was 18.6 µM (inactive) and the GI50 (MDA-MB-231) was 37.3 µM (inactive). The GI50 (RXF 393) was 17.2 µM (inactive), the GI50 (786-0) was 16.3 µM (inactive) and the GI50 (UO-31) was 25.7 µM (inactive). The GI50 (MDA-N) was 16.8 µM (inactive), the GI50 (Hs-578T) was 15.7 µM (inactive) and the GI50 (OVCAR-3) was 17.8 µM (inactive). For the same molecule, the GI50 (NCI-H522) was 14.4 µM (inactive), the GI50 (MCF7) was 16.7 µM (inactive) and the GI50 (HL-60) was 20 µM (inactive). The GI50 (SK-MEL-28) was 16.3 µM (inactive), the GI50 (HOP-62) was 19.9 µM (inactive) and the GI50 (SK-MEL-2) was 19.1 µM (inactive). For the same molecule, the GI50 (HT-29) was 12.9 µM (inactive), the GI50 (MOLT-4) was 16.6 µM (inactive) and the GI50 (NCI-H460) was 17.1 µM (inactive). The GI50 (HCC 2998) was 3.65 µM (inactive), the GI50 (ACHN) was 15.2 µM (inactive) and the GI50 (UACC-257) was 15.8 µM (inactive). For the same molecule, the GI50 (NCI-H23) was 17.3 µM (inactive), the GI50 (UACC-62) was 13.9 µM (inactive) and the GI50 (A498) was 19.5 µM (inactive). The GI50 (IGROV-1) was 21.9 µM (inactive), the GI50 (M14) was 17.8 µM (inactive) and the GI50 (SF-268) was 14.3 µM (inactive). For the same molecule, the GI50 (OVCAR-8) was 23 µM (inactive), the GI50 (DU-145) was 18.8 µM (inactive) and the GI50 (OVCAR-5) was 18.6 µM (inactive). For the same molecule, the GI50 (TK-10) was 25.2 µM (inactive), the GI50 (T47D) was 19 µM (inactive) and the GI50 (NCI/ADR-RES) was 19.9 µM (inactive).
